Test results from US20210137117A1, “HERBICIDAL MIXTURES” (Bayer Aktiengesellschaft, priority 2017, published 2021).

Tests used:
Assay in all cases: Pre-emergence action against weeds (greenhouse)
Format in all cases: in vivo
[1] = test system: ALOMY—sensitive (Alopecurus myosuroides); conditions: for Herbicidal action ALOMY sensitive: pre-emergence
Description: (§1) Depending on the trial conditions, the soil of the standard field soil is sterile or not sterile.
(§2) The amount of water used for spray application was 300l/ha.
ALOMY—sensitive (Alopecurus myosuroides) sensitive to customary herbicidally active compounds.
(§3) Insofar as herbicidal effects of the compositions according to the invention compared to mixtures of the prior art or compared to components applied individually against economically important mono- and dicotyledonous harmful plants were the centre of attention, the synergistic herbicidal activities were calculated using Colby's formula (cf. S. R. Colby; Weeds 15 (1967), 20-22): […]

[2] = test system: ALOMY—resistant (Alopecurus myosuroides); conditions: for Herbicidal action ALOMY resistant: pre-emergence
Description: as §1, §2
ALOMY—resistant (Alopecurus myosuroides) resistant to herbicidally active compounds of the HRAC groups A and B; population mixture of field origin having increased metabolic resistance (IMR) and some target site resistance (TSR).
as §3

[3] = test system: LOLRI—sensitive (Lolium rigidum); conditions: for Herbicidal action LOLRI sensitive: pre-emergence
Description: as §1, §2
LOLRI—sensitive (Lolium rigidum) sensitive to customary herbicidally active compounds.
as §3

[4] = test system: LOLRI—resistant (Lolium rigidum); conditions: for Herbicidal action LOLRI resistant: pre-emergence
Description: as §1, §2
LOLRI—resistant (Lolium rigidum) resistant to herbicidally active compounds of the HRAC groups A and B; population mixture of field origin having increased metabolic resistance (IMR) and some target site resistance (TSR).
as §3

[5] = test system: AVEFA (Avenafatua); conditions: for Herbicidal action AVEFA: pre-emergence
Description: as §1, §2
AVEFA (Avenafatua)—Wild oat
as §3

[6] = test system: BROST (Bromus sterilis); conditions: for Herbicidal action BROST: pre-emergence
Description: as §1, §2
BROST (Bromus sterilis)—Bromegrass, barren
as §3

[7] = test system: SORHA (Sorghum halepense); conditions: for Herbicidal action SORHA: pre-emergence
Description: as §1, §2
SORHA (Sorghum halepense)—Johnsongrass
as §3

[8] = test system: CENCY (Centaurea cyanus); conditions: for Herbicidal action CENCY: pre-emergence
Description: as §1, §2
CENCY (Centaurea cyanus)—Cornflower
as §3

[9] = test system: VERHE (Veronica hederaefolia); conditions: for Herbicidal action VERHE: pre-emergence
Description: as §1, §2
VERHE (Veronica hederaefolia)—Speedwell, iveleaf
as §3

[10] = test system: EMEAU (Emex australis); conditions: for Herbicidal action EMEAU: pre-emergence
Description: as §1, §2
EMEAU (Emex australis)—Cathead
as §3

[11] = test system: RAPRA (Raphanus raphanistrum); conditions: for Herbicidal action RAPRA: pre-emergence
Description: as §1, §2
RAPRA (Raphanus raphanistrum)—Charlock, jointed
as §3

[12] = test system: BRSNW (Brassica napus); conditions: for Herbicidal action BRSNW: pre-emergence
Description: as §1, §2
BRSNW (Brassica napus)—Rape, winter
as §3

[13] = test system: TRZAS (Triticum aestivum); conditions: for Herbicidal action (crop damage) TRZAS: pre-emergence
Description: as §1, §2
TRZAS (Triticum aestivum)—Wheat, spring
as §3

[14] = test system: HORVS (Hordeum vulgare); conditions: for Herbicidal action (crop damage) HORVS: pre-emergence
Description: as §1, §2
HORVS (Hordeum vulgare)—Barley, spring
as §3

CCOC(=O)C1=NN(c2ccc(Cl)cc2Cl)C(C)(C(=O)OCC)C1 (stereo not drawn) [Mefenpyr, ethyl 1-(2,4-dichlorophenyl)-5-(ethoxycarbonyl)-5-methyl-2-pyrazoline-3-carboxylate]
herbicidal action ([1]; 300 g AS/ha): 0%
Herbicidal action ALOMY sensitive ([1]; dose 10 g AS/ha): 0
Herbicidal action ALOMY sensitive ([1]; dose 100 g AS/ha): 0
herbicidal action ([2]; 300 g AS/ha): 0%
Herbicidal action ALOMY resistant ([2]; dose 10 g AS/ha): 0
Herbicidal action ALOMY resistant ([2]; dose 100 g AS/ha): 0
herbicidal action ([3]; 300 g AS/ha): 0%
Herbicidal action LOLRI sensitive ([3]; dose 10 g AS/ha): 0
Herbicidal action LOLRI sensitive ([3]; dose 100 g AS/ha): 0
herbicidal action ([4]; 300 g AS/ha): 0%
Herbicidal action LOLRI resistant ([4]; dose 10 g AS/ha): 0
Herbicidal action LOLRI resistant ([4]; dose 100 g AS/ha): 0
herbicidal action ([5]; 300 g AS/ha): 0%
Herbicidal action AVEFA ([5]; dose 10 g AS/ha): 0
Herbicidal action AVEFA ([5]; dose 100 g AS/ha): 0
herbicidal action ([6]; 300 g AS/ha): 0%
Herbicidal action BROST ([6]; dose 10 g AS/ha): 0
Herbicidal action BROST ([6]; dose 100 g AS/ha): 0
herbicidal action ([7]; 300 g AS/ha): 0%
Herbicidal action SORHA ([7]; dose 10 g AS/ha): 0
Herbicidal action SORHA ([7]; dose 100 g AS/ha): 0
herbicidal action ([8]; 300 g AS/ha): 0%
Herbicidal action CENCY ([8]; dose 10 g AS/ha): 0
Herbicidal action CENCY ([8]; dose 100 g AS/ha): 0
herbicidal action ([9]; 300 g AS/ha): 0%
Herbicidal action VERHE ([9]; dose 10 g AS/ha): 0
Herbicidal action VERHE ([9]; dose 100 g AS/ha): 0
herbicidal action ([10]; 300 g AS/ha): 0%
Herbicidal action EMEAU ([10]; dose 10 g AS/ha): 0
Herbicidal action EMEAU ([10]; dose 100 g AS/ha): 0
herbicidal action ([11]; 300 g AS/ha): 0%
Herbicidal action RAPRA ([11]; dose 10 g AS/ha): 0
Herbicidal action RAPRA ([11]; dose 100 g AS/ha): 0
herbicidal action ([12]; 300 g AS/ha): 0%
Herbicidal action BRSNW ([12]; dose 10 g AS/ha): 0
Herbicidal action BRSNW ([12]; dose 100 g AS/ha): 0
herbicidal action ([13]; 300 g AS/ha): 0%
Herbicidal action (crop damage) TRZAS ([13]; dose 10 g AS/ha): 0
Herbicidal action (crop damage) TRZAS ([13]; dose 100 g AS/ha): 0
herbicidal action ([14]; 300 g AS/ha): 0%
Herbicidal action (crop damage) HORVS ([14]; dose 10 g AS/ha): 0
Herbicidal action (crop damage) HORVS ([14]; dose 100 g AS/ha): 0
